Assay results reported in patent US20150344540A1, “NOVEL GLP-1 RECEPTOR AGONISTS WITH CHOLESTEROL EFFLUX ACTIVITY” (NOVO NORDISK A/S, priority 2012, published 2015).
Read-outs that look alike come from different tables or passages of the source. Where a SMILES comes first, the peptide text is derived from it. [ ]: non-standard residue; d: D form. Aib = CC(C)(N)C(=O)O

How the values were obtained:
human GLP-1 receptor = human GLP-1 receptor (Homo sapiens, UniProt P43220); experiment: Functional GLP-1 receptor assay, in vitro potency (CRE luciferase; whole cells); assay type: cell-based; conditions: BHK cells expressing human GLP-1 receptor
Chain of human GLP-1 receptor (P43220 24-463): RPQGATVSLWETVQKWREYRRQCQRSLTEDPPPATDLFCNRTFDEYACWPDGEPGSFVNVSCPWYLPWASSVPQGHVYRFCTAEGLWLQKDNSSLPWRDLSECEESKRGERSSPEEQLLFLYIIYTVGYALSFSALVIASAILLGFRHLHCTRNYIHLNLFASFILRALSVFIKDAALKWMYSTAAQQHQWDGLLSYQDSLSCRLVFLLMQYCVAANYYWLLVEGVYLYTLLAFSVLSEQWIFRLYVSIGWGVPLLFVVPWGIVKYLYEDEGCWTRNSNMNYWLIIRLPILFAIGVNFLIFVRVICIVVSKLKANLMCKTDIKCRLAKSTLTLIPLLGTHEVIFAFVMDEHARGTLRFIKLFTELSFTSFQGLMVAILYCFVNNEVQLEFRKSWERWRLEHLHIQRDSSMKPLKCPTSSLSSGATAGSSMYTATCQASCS

[1] = system: Mouse monocyte/macrophage cell line, RAW 264.7; experiment: Cholesterol efflux assay (3H-cholesterol, macrophage cell line); assay type: cell-based; conditions: RAW 264.7, 4 hrs incubation, 0.1% human serum albumin, ABCA1-mediated efflux
[2] = GLP1R CRE luc 1% HSA EC50 Mean Value, 1% HSA
[3] = 0% HSA, read-out: GLP1R CRE luc 0% HSA EC50 Mean Value

EC50 (human GLP-1 receptor; [2])	EC50 (human GLP-1 receptor; [3])	SMILES	4 h Cholesterol Efflux Emax [1]
0.118 nM		CC[C@H](C)[C@H](NC(=O)[C@H](Cc1ccccc1)NC(=O)[C@H](CCC(=O)O)NC(=O)[C@H](CCCNC(=N)N)NC(=O)[C@@H](NC(=O)[C@H](C)NC(=O)[C@H](CCC(=O)O)NC(=O)CNC(=O)[C@H](CCC(=O)O)NC(=O)[C@H](CC(C)C)NC(=O)[C@H](Cc1ccc(O)cc1)NC(=O)[C@H](CO)NC(=O)[C@H](CO)NC(=O)[C@@H](NC(=O)[C@H](CC(=O)O)NC(=O)[C@H](CO)NC(=O)[C@@H](NC(=O)[C@H](Cc1ccccc1)NC(=O)[C@@H](NC(=O)CNC(=O)[C@H](CCC(=O)O)NC(=O)C(C)(C)NC(=O)[C@@H](N)Cc1c[nH]cn1)[C@@H](C)O)[C@@H](C)O)C(C)C)C(C)C)C(=O)N[C@@H](C)C(=O)N[C@@H](Cc1c[nH]c2ccccc12)C(=O)N[C@@H](CC(C)C)C(=O)N[C@H](C(=O)N[C@@H](CCC(=O)O)C(=O)N[C@@H](CCCNC(=N)N)C(=O)N[C@H](C(=O)N[C@@H](CCCNC(=N)N)C(=O)N[C@@H](CCC(=O)O)C(=O)N[C@@H](Cc1ccccc1)C(=O)N[C@@H](CC(C)C)C(=O)N[C@@H](CCCCN)C(N)=O)C(C)C)C(C)C [Compound 91] (H-H[Aib]EGTFTSDVSSYLEGEAVREFIAWLVERVREFLK-NH2)	103%
0.016 nM	0.025 nM	CC[C@H](C)[C@H](NC(=O)[C@H](Cc1ccccc1)NC(=O)[C@H](CCC(=O)O)NC(=O)[C@H](CCCCN)NC(=O)[C@@H](NC(=O)[C@H](C)NC(=O)[C@H](CCC(=O)O)NC(=O)CNC(=O)[C@H](CCC(=O)O)NC(=O)[C@H](CC(C)C)NC(=O)[C@H](Cc1ccc(O)cc1)NC(=O)[C@H](CO)NC(=O)[C@H](CO)NC(=O)[C@@H](NC(=O)[C@H](CC(=O)O)NC(=O)[C@H](CO)NC(=O)[C@@H](NC(=O)[C@H](Cc1ccccc1)NC(=O)[C@@H](NC(=O)CNC(=O)[C@H](CCC(=O)O)NC(=O)C(C)(C)NC(=O)[C@@H](N)Cc1c[nH]cn1)[C@@H](C)O)[C@@H](C)O)C(C)C)C(C)C)C(=O)N[C@@H](C)C(=O)N[C@@H](Cc1c[nH]c2ccccc12)C(=O)N[C@@H](CC(C)C)C(=O)N[C@H](C(=O)N[C@@H](CCC(=O)O)C(=O)N[C@@H](CCCCN)C(=O)N[C@H](C(=O)N[C@@H](CCCCN)C(=O)N[C@@H](CCC(=O)O)C(=O)N[C@@H](CCC(=O)O)C(=O)N[C@@H](CC(C)C)C(N)=O)C(C)C)C(C)C [Compound 116, [Aib8,Glu23,Val25,Glu34,Lys35,Val36,Lys37]-GLP-1-(7-37)-peptidyl-Glu-Glu-Leu amide] (H-H[Aib]EGTFTSDVSSYLEGEAVKEFIAWLVEKVKEEL-NH2)	131%
0.042 nM		CC[C@H](C)[C@H](NC(=O)[C@H](Cc1ccccc1)NC(=O)[C@H](CCC(=O)O)NC(=O)[C@H](CCCCN)NC(=O)[C@@H](NC(=O)[C@H](C)NC(=O)[C@H](CCC(=O)O)NC(=O)CNC(=O)[C@H](CCC(=O)O)NC(=O)[C@H](CC(C)C)NC(=O)[C@H](Cc1ccc(O)cc1)NC(=O)[C@H](CO)NC(=O)[C@H](CO)NC(=O)[C@@H](NC(=O)[C@H](CC(=O)O)NC(=O)[C@H](CO)NC(=O)[C@@H](NC(=O)[C@H](Cc1ccccc1)NC(=O)[C@@H](NC(=O)CNC(=O)[C@H](CCC(=O)O)NC(=O)C(C)(C)NC(=O)[C@@H](N)Cc1c[nH]cn1)[C@@H](C)O)[C@@H](C)O)C(C)C)C(C)C)C(=O)N[C@@H](CCC(N)=O)C(=O)N[C@@H](Cc1c[nH]c2ccccc12)C(=O)N[C@@H](CC(C)C)C(=O)N[C@H](C(=O)N[C@@H](CCC(=O)O)C(=O)N[C@@H](CCCCN)C(=O)NC(C)(C)C(=O)N[C@@H](CCCCN)C(=O)N[C@@H](CCC(=O)O)C(=O)N[C@@H](Cc1ccccc1)C(=O)N[C@@H](CC(C)C)C(N)=O)C(C)C [Compound 83, [Aib8,Glu23,Val25,Gln30,Glu34,Lys35,Aib36,Lys37]-GLP-1-(7-37)-peptidyl-Glu-Phe-Leu amide] (H-H[Aib]EGTFTSDVSSYLEGEAVKEFIQWLVEK[Aib]KEFL-NH2)	97%
0.049 nM	0.08 nM	CC[C@H](C)[C@H](NC(=O)[C@H](Cc1ccccc1)NC(=O)[C@H](CCC(=O)O)NC(=O)[C@H](CCCCN)NC(=O)[C@H](C)NC(=O)[C@H](C)NC(=O)[C@H](CCC(=O)O)NC(=O)[C@H](CCC(=O)O)NC(=O)[C@H](CCC(=O)O)NC(=O)[C@H](CC(C)C)NC(=O)[C@H](Cc1ccc(O)cc1)NC(=O)[C@H](CCCCN)NC(=O)[C@H](CO)NC(=O)[C@H](Cc1ccc(O)cc1)NC(=O)[C@H](CC(=O)O)NC(=O)[C@H](CO)NC(=O)[C@@H](NC(=O)[C@H](Cc1ccccc1)NC(=O)[C@@H](NC(=O)CNC(=O)[C@H](Cc1c[nH]cn1)NC(=O)C(C)(C)NC(=O)[C@@H](N)Cc1c[nH]cn1)[C@@H](C)O)[C@@H](C)O)C(=O)N[C@@H](C)C(=O)N[C@@H](Cc1c[nH]c2ccccc12)C(=O)N[C@@H](CC(C)C)C(=O)N[C@@H](CC(C)C)C(=O)N[C@@H](CCC(=O)O)C(=O)N[C@@H](CCCCN)C(=O)NC(C)(C)C(=O)N[C@@H](CCCCN)C(=O)N[C@@H](CCC(=O)O)C(=O)N[C@@H](Cc1ccccc1)C(=O)N[C@@H](CC(C)C)C(N)=O [Compound 55] (H-H[Aib]HGTFTSDYSKYLEEEAAKEFIAWLLEK[Aib]KEFL-NH2)	96%
	0.372 nM	CC[C@H](C)[C@H](NC(=O)[C@H](Cc1ccccc1)NC(=O)[C@H](CCC(=O)O)NC(=O)[C@H](CCCCN)NC(=O)[C@@H](NC(=O)[C@H](C)NC(=O)[C@H](CCC(=O)O)NC(=O)CNC(=O)[C@H](CCC(=O)O)NC(=O)[C@H](CC(C)C)NC(=O)[C@H](Cc1ccc(O)cc1)NC(=O)[C@H](CO)NC(=O)[C@H](CO)NC(=O)[C@@H](NC(=O)[C@H](CC(=O)O)NC(=O)[C@H](CO)NC(=O)[C@@H](NC(=O)[C@H](Cc1ccccc1)NC(=O)[C@@H](NC(=O)CNC(=O)[C@H](CCC(=O)O)NC(=O)C(C)(C)NC(=O)[C@@H](N)Cc1c[nH]cn1)[C@@H](C)O)[C@@H](C)O)C(C)C)C(C)C)C(=O)N[C@@H](C)C(=O)N[C@@H](Cc1c[nH]c2ccccc12)C(=O)N[C@@H](CC(C)C)C(=O)N[C@H](C(=O)N[C@@H](CCC(=O)O)C(=O)N[C@@H](CCCCN)C(=O)N[C@@H](Cc1ccccc1)C(=O)N[C@@H](CCCCN)C(=O)N[C@@H](CCC(=O)O)C(=O)N[C@@H](C)C(=O)N[C@@H](Cc1ccccc1)C(N)=O)C(C)C [Compound 46, [Aib8,Glu23,Val25,Glu34,Lys35,Phe36,Lys37]-GLP-1-(7-37)-peptidyl-Glu-Ala-Phe amide] (H-H[Aib]EGTFTSDVSSYLEGEAVKEFIAWLVEKFKEAF-NH2)	98%
	0.034 nM	CC[C@H](C)[C@H](NC(=O)[C@H](Cc1ccccc1)NC(=O)[C@H](CCC(=O)O)NC(=O)[C@H](CCCCN)NC(=O)[C@@H](NC(=O)[C@H](C)NC(=O)[C@H](CCC(=O)O)NC(=O)CNC(=O)[C@H](CCC(=O)O)NC(=O)[C@H](CC(C)C)NC(=O)[C@H](Cc1ccc(O)cc1)NC(=O)[C@H](CO)NC(=O)[C@H](CO)NC(=O)[C@@H](NC(=O)[C@H](CC(=O)O)NC(=O)[C@H](CO)NC(=O)[C@@H](NC(=O)[C@H](Cc1ccccc1)NC(=O)[C@@H](NC(=O)CNC(=O)[C@H](CCC(=O)O)NC(=O)C(C)(C)NC(=O)[C@@H](N)Cc1c[nH]cn1)[C@@H](C)O)[C@@H](C)O)C(C)C)C(C)C)C(=O)N[C@@H](C)C(=O)N[C@@H](Cc1c[nH]c2ccccc12)C(=O)N[C@@H](CC(C)C)C(=O)N[C@H](C(=O)N[C@@H](CCC(=O)O)C(=O)N[C@@H](CCCCN)C(=O)NCC(=O)N[C@@H](CCCCN)C(=O)N[C@@H](CCC(=O)O)C(=O)N[C@@H](Cc1ccccc1)C(=O)N[C@@H](CC(C)C)C(N)=O)C(C)C [Compound 113, [Aib8,Glu23,Val25,Glu34,Lys35,Gly36,Lys37]-GLP-1-(7-37)-peptidyl-Glu-Phe-Leu amide] (H-H[Aib]EGTFTSDVSSYLEGEAVKEFIAWLVEKGKEFL-NH2)	143%
0.032 nM		CC[C@H](C)[C@H](NC(=O)[C@H](Cc1ccccc1)NC(=O)[C@H](CCC(=O)O)NC(=O)[C@H](CCCNC(=N)N)NC(=O)[C@@H](NC(=O)[C@H](C)NC(=O)[C@H](CCC(=O)O)NC(=O)[C@H](CCC(=O)O)NC(=O)[C@H](CCC(=O)O)NC(=O)[C@H](CCSC)NC(=O)[C@H](CCC(N)=O)NC(=O)[C@H](CCCCN)NC(=O)[C@H](CO)NC(=O)[C@H](CC(C)C)NC(=O)[C@H](CC(=O)O)NC(=O)[C@H](CO)NC(=O)[C@@H](NC(=O)[C@H](Cc1ccccc1)NC(=O)[C@@H](NC(=O)CNC(=O)[C@H](CCC(=O)O)NC(=O)C(C)(C)NC(=O)[C@@H](N)Cc1c[nH]cn1)[C@@H](C)O)[C@@H](C)O)C(C)C)C(=O)N[C@@H](CCC(=O)O)C(=O)N[C@@H](Cc1c[nH]c2ccccc12)C(=O)N[C@@H](CC(C)C)C(=O)N[C@@H](CCCCN)C(=O)N[C@@H](CC(N)=O)C(=O)N[C@@H](CCCCN)C(=O)NC(C)(C)C(=O)N1CCC[C@H]1C(=O)N[C@@H](CCC(=O)O)C(=O)N[C@@H](Cc1ccccc1)C(=O)N[C@@H](CC(C)C)C(=O)N[C@@H](CCC(=O)O)C(=O)N[C@@H](CC(C)C)C(=O)N[C@@H](CC(C)C)C(N)=O [Compound 35, [Aib2,Glu21,Lys29,Aib30,Glu32,Phe33,Leu34,Glu35,Leu36,Leu371-Exendin-4-(1-37)-peptide amide] (H-H[Aib]EGTFTSDLSKQMEEEAVREFIEWLKNK[Aib]PEFLELL-NH2; N-terminus assumed)	48%
